Laboratory results published in patent publication US10662164B2, “Non-beta lactam antibiotics” (University of Notre Dame du Lac, priority 2014, dated 2020).
≈ marks a conversion by molar mass, not a printed value. Like-named read-outs stand apart in the source and are kept apart here.

Tests used:
[1] = test system: S. aureus ATCC 29213; test: MIC determination; assay type: cell-based, Staphylococcus aureus; conditions: for MIC: Staphylococcus aureus; for S. aureus ATCC 29213 MIC: Table 3.1, compounds of Schemes 2-4; for antibacterial activity in words (SAR, ring A derivatives): S. aureus ATCC 29213, compounds of Schemes 3-4; for antibacterial activity in words (SAR, C/D ring derivatives): S. aureus ATCC29213, second numbering, compounds of Scheme 6
[2] = test system: E. faecium NCTC 7171; test: MIC determination; assay type: cell-based, Enterococcus faecium; conditions: for MIC: Enterococcus faecium
[3] = ATCC29213, Table 3.1 and SAR text, compounds of Schemes 2-4, read-out: S. aureus ATCC 29213 MIC
[4] = NCTC7171, Table 3.1, compounds of Schemes 2-4, read-out: E. faecium NCTC 7171 MIC
[5] = Table 3.1, compounds of Schemes 2-4
[6] = ATCC29213, read-out: S. aureus ATCC 29213 MIC
[7] = NCTC7171, read-out: E. faecium NCTC 7171 MIC

Row | SMILES | MIC [1, 3] | MIC [2, 4] | other results
1 | C[Si](C)(C)C#Cc1c[nH]nc1-c1nc(-c2ccc(Oc3ccc(C(F)(F)F)cc3)cc2)no1 [Compound 103b, 3-(4-(4-Trifluoromethyl)phenoxy)phenyl)-5-(4-((trimethylsilyl)ethynyl-1H-pyrazol-3-yl)-1,2,4-oxadiazole] | – | – | S. aureus ATCC 29213 MIC [1]: >128 µg/mL; E. faecium NCTC 7171 MIC [2, 5]: >128 µg/mL
2 | Oc1c(F)cc(-c2nc(-c3ccc(Oc4ccc(C(F)(F)F)cc4)cc3)no2)cc1F [Compound 71b] | – | – | S. aureus ATCC 29213 MIC [1]: 2 µg/mL; E. faecium NCTC 7171 MIC [2, 5]: 2 µg/mL
3 | Nc1ccc(-c2nc(-c3ccc(Oc4ccccc4)cc3)no2)cc1 [Compound 58a] | – | – | MIC [1, 6]: 4 µg/mL (≈ 12.1 µM); MIC [2, 7]: 2 µg/mL (≈ 6.07 µM)
4 | Fc1ccc(-c2nc(-c3ccc(Oc4ccc(C(F)(F)F)cc4)cc3)no2)cc1 [Compound 80b] | > 1200 µg/mL | – | –
5 | CC(C)Nc1c[nH]nc1-c1nc(-c2ccc(Oc3ccccc3)cc2)no1 [Compound 65a] | – | – | antibacterial activity in words (SAR, C/D ring derivatives) [1]: did not alter the activity; MIC [1, 6]: 0.5 µg/mL (≈ 1.38 µM); MIC [2, 7]: > 128 µg/mL
6 | Fc1ccc(Oc2ccc(-c3noc(-c4cc[nH]n4)n3)cc2)cc1 [Compound 102c] | > 128 µg/mL | 32 µg/mL (≈ 99.3 µM) | –
7 | [O-][n+]1ccc(-c2nc(-c3ccc(Oc4ccccc4)cc3)no2)cc1 [Compound 115a] | > 128 µg/mL | 64 µg/mL (≈ 193 µM) | antibacterial activity in words (SAR, ring A derivatives) [1]: No activity
8 | NS(=O)(=O)c1ccc(-c2nc(-c3ccc(Oc4ccc(C(F)(F)F)cc4)cc3)no2)cc1 [Compound 87b] | > 128 µg/mL | 128 µg/mL (≈ 277 µM) | –
9 | Nc1c[nH]nc1-c1nc(-c2ccc(Oc3ccccc3)cc2)no1 [Compound 64a] | – | – | antibacterial activity in words (SAR, C/D ring derivatives) [1]: retained activity; MIC [1, 6]: 16 µg/mL (≈ 50.1 µM); MIC [2, 7]: 32 µg/mL (≈ 100 µM)
10 | O=C(O)c1ccc(-c2nc(-c3ccc(Oc4ccc(F)cc4)cc3)no2)cc1 [Compound 89c] | > 128 µg/mL | 128 µg/mL (≈ 340 µM) | antibacterial activity in words (SAR, ring A derivatives) [1]: failed to show significant activity
11 | CC(C)c1cc(-c2nc(-c3ccc(Oc4ccc(F)cc4)cc3)no2)[nH]n1 [Compound 119c] | > 128 µg/mL | 64 µg/mL (≈ 176 µM) | antibacterial activity in words (SAR, ring A derivatives) [1]: No activity
12 | Oc1ccc(Cc2nc(-c3ccc(Oc4ccccc4)cc3)no2)cc1 [Compound 74a] | – | 8 µg/mL (≈ 23.2 µM) | –
13 | Oc1ccc(-c2nc(-c3ccc(OC4CCCC4)cc3)no2)cc1 [DR-03-235] | – | – | MIC S. aureus ATCC 29213 MH ([1]; Mueller Hinton broth, Table 2.2, in µg/mL): 0.5-1
14 | Cl.NC(Cc1ccccc1)c1nc(-c2ccc(Oc3ccccc3)cc2)no1 (stereo not shown) [Compound 136a] | – | – | E. faecium NCTC 7171 MIC [2, 5]: >128 µg/mL
15 | FC(F)(F)c1ccc(Oc2ccc(-c3noc(-c4n[nH]cc4NC4CCCC4)n3)cc2)cc1 [Compound 107b] | > 128 µg/mL | > 128 µg/mL | antibacterial activity in words (SAR, ring A derivatives) [1]: did not extend
16 | Oc1ccc(-c2nc(-c3ccc(Oc4ccc(C(F)(F)F)cc4)cc3)no2)cc1F [Compound 70b] | – | – | S. aureus ATCC 29213 MIC [1]: 2 µg/mL; E. faecium NCTC 7171 MIC [2, 5]: 2 µg/mL
17 | c1ccc(Oc2ccc(-c3noc(-c4ccncc4)n3)cc2)cc1 [Compound 114a] | > 128 µg/mL | 64 µg/mL (≈ 203 µM) | antibacterial activity in words (SAR, ring A derivatives) [1]: No activity

Row | SMILES | MIC [1, 3] | MIC [2, 4] | other results
18 | Oc1nc(-c2ccc(Oc3ccccc3)cc2)no1 [Compound 112a] | > 128 µg/mL | > 128 µg/mL | antibacterial activity in words (SAR, ring A derivatives) [1]: abolishes activity
19 | COc1ccc(-c2nc(-c3ccc(Oc4ccc(C(F)(F)F)cc4)cc3)no2)cc1[N+](=O)[O-] [Compound 99b] | > 128 µg/mL | > 128 µg/mL | –
20 | Fc1ccc(Oc2ccc(-c3noc(-c4cnc[nH]4)n3)cc2)cc1 [Compound 76c] | > 128 µg/mL | 128 µg/mL (≈ 397 µM) | antibacterial activity in words (SAR, ring A derivatives) [1]: no activity
21 | Fc1ccc(Oc2ccc(-c3noc(-c4cc[nH]c4)n3)cc2)cc1 [Compound 127c] | > 128 µg/mL | > 128 µg/mL | antibacterial activity in words (SAR, ring A derivatives) [1]: No activity
22 | CCOP(=O)(OCC)c1c[nH]nc1-c1nc(-c2ccc(Oc3ccc(C(F)(F)F)cc3)cc2)no1 [Compound 111b] | – | – | MIC [1, 6]: > 128 µg/mL; MIC [2, 7]: > 128 µg/mL
23 | Nc1cncc(-c2nc(-c3ccc(Oc4ccc(F)cc4)cc3)no2)c1 [Compound 122c] | > 128 µg/mL | 128 µg/mL (≈ 367 µM) | –
24 | CCCCNc1c[nH]nc1-c1nc(-c2ccc(Oc3ccc(C(F)(F)F)cc3)cc2)no1 [Compound 104b] | > 128 µg/mL | > 128 µg/mL | antibacterial activity in words (SAR, ring A derivatives) [1]: did not extend
25 | Nc1cncc(-c2nc(-c3ccc(Oc4ccc(C(F)(F)F)cc4)cc3)no2)c1 [Compound 122b] | > 128 µg/mL | > 128 µg/mL | –
26 | FC(F)(F)c1ccc(Oc2ccc(-c3noc(-c4nc[nH]n4)n3)cc2)cc1 [Compound 116b] | > 128 µg/mL | > 128 µg/mL | antibacterial activity in words (SAR, ring A derivatives) [1]: No activity
27 | O=C1C[C@H](c2nc(-c3ccc(Oc4ccc(C(F)(F)F)cc4)cc3)no2)CN1 [Compound 133b] | – | > 128 µg/mL | –
28 | FC(F)(F)c1ccc(Oc2ccc(-c3noc(-c4ccc(Br)cc4)n3)cc2)cc1 [Compound 81b] | > 1000 µg/mL | – | –
29 | Fc1ccc(-c2nc(-c3ccc(Oc4ccccc4)cc3)no2)cc1 [Compound 80a] | > 1000 µg/mL | – | –
30 | O=C1C[C@@H](c2nc(-c3ccc(Oc4ccc(C(F)(F)F)cc4)cc3)no2)CN1 [Compound 134b] | – | > 128 µg/mL | –
31 | Cl.c1ccc(Oc2ccc(-c3noc(C4CCCN4)n3)cc2)cc1 (stereo not shown) [Compound 132a] | – | – | E. faecium NCTC 7171 MIC [2, 5]: 64 µg/mL
32 | Cl.c1ccc(Oc2ccc(-c3noc(C4CCNCC4)n3)cc2)cc1 [Compound 128a] | – | – | E. faecium NCTC 7171 MIC [2, 5]: 16 µg/mL
33 | O=c1cc(-c2nc(-c3ccc(Oc4ccc(C(F)(F)F)cc4)cc3)no2)[nH]c(=O)[nH]1 [Compound 135b] | – | > 128 µg/mL | –

Continued, in another order:

Row | MIC [1, 3] | MIC [2, 4] | SMILES | other results
34 | > 128 µg/mL | 64 µg/mL (≈ 172 µM) | Fc1ccc(Oc2ccc(-c3noc(-c4c[nH]c5ncccc45)n3)cc2)cc1 [Compound 125c] | –
35 | 2 µg/mL (≈ 4.79 µM) | 2 µg/mL (≈ 4.79 µM) | O=[N+]([O-])c1c[nH]nc1-c1nc(-c2ccc(Oc3ccc(C(F)(F)F)cc3)cc2)no1 [Compound 63b, 5-(4-Nitro-1H-pyrazole-3-yl)-3-(4-(4-(trifluoromethyl)phenoxy)phenyl)-1,2,4-oxadiazole] | –
36 | > 128 µg/mL | 16 µg/mL (≈ 43 µM) | Fc1ccc(Oc2ccc(-c3noc(-c4n[nH]c5ccccc45)n3)cc2)cc1 [Compound 123c] | –
37 | 1 µg/mL (≈ 3.03 µM) | 1 µg/mL (≈ 3.03 µM) | Oc1ccc(-c2nc(-c3ccc(Oc4ccccc4)cc3)no2)cc1 [Compound 57a] | –
38 | 2 µg/mL (≈ 4.82 µM) | 2 µg/mL (≈ 4.82 µM) | Nc1ccc(-c2nc(-c3ccc(Oc4ccc(C(F)(F)F)cc4)cc3)no2)cc1F [Compound 72b] | –
39 | 1 µg/mL (≈ 2.52 µM) | 2 µg/mL (≈ 5.03 µM) | Nc1ccc(-c2nc(-c3ccc(Oc4ccc(C(F)(F)F)cc4)cc3)no2)cc1 [Compound 58b] | –
40 | > 128 µg/mL | 128 µg/mL (≈ 349 µM) | O=[N+]([O-])c1c[nH]c(-c2nc(-c3ccc(Oc4ccc(F)cc4)cc3)no2)c1 [Compound 78c] | antibacterial activity in words (SAR, ring A derivatives) [1]: No activity
41 | > 128 µg/mL | > 128 µg/mL | Nc1ccc(-c2nc(-c3ccc(Oc4ccccc4)cc3)no2)c(O)c1 [Compound 98a] | –
42 | > 128 µg/mL | 128 µg/mL (≈ 273 µM) | FC(F)(F)c1ccc(Oc2ccc(-c3noc(-c4n[nH]cc4NC4CCCCC4)n3)cc2)cc1 [Compound 106b] | antibacterial activity in words (SAR, ring A derivatives) [1]: did not extend
43 | > 128 µg/mL | 64 µg/mL (≈ 154 µM) | Nc1cc(-c2nc(-c3ccc(Oc4ccc(C(F)(F)F)cc4)cc3)no2)cnc1O [Compound 121b] | –
44 | 4 µg/mL (≈ 10.3 µM) | 16 µg/mL (≈ 41.3 µM) | Nc1c[nH]nc1-c1nc(-c2ccc(Oc3ccc(C(F)(F)F)cc3)cc2)no1 [Compound 64b, 3-(3-(4-(4-(Trifluoromethyl)phenoxy)phenyl)-1,2,4-oxadiazol-5-yl)-1H-pyrazol-4-amine] | –
45 | 8 µg/mL (≈ 20.8 µM) | 4 µg/mL (≈ 10.4 µM) | Oc1c(F)cc(-c2nc(-c3ccc(Oc4ccc(F)cc4)cc3)no2)cc1F [Compound 71c] | –
46 | > 128 µg/mL | 64 µg/mL (≈ 172 µM) | FC(F)(F)c1ccc(Oc2ccc(-c3noc(-c4cc[nH]n4)n3)cc2)cc1 [Compound 102b] | –
47 | > 128 µg/mL | > 128 µg/mL | COc1ccc(-c2nc(-c3ccc(Oc4ccc(C(F)(F)F)cc4)cc3)no2)cc1OC [Compound 101b] | –
48 | 4 µg/mL (≈ 11 µM) | 8 µg/mL (≈ 22 µM) | Oc1ccc(-c2nc(-c3ccc(Oc4ccc(F)cc4)cc3)no2)cc1O [Compound 69c] | –
49 | 1 µg/mL (≈ 2.32 µM) | 32 µg/mL (≈ 74.4 µM) | Ic1c[nH]nc1-c1nc(-c2ccc(Oc3ccccc3)cc2)no1 [62a] | –
50 | > 128 µg/mL | > 128 µg/mL | COc1ccc(-c2nc(-c3ccc(Oc4ccc(F)cc4)cc3)no2)cc1OC [Compound 101c] | –
51 | > 128 µg/mL | 128 µg/mL (≈ 329 µM) | COc1ccc(-c2nc(-c3ccc(Oc4ccccc4)cc3)no2)cc1[N+](=O)[O-] [Compound 99a] | –
52 | > 128 µg/mL | 32 µg/mL (≈ 67.3 µM) | CS(=O)(=O)Nc1ccc(-c2nc(-c3ccc(Oc4ccc(C(F)(F)F)cc4)cc3)no2)cc1 [Compound 86b] | –
53 | 8 µg/mL (≈ 20.3 µM) | 4 µg/mL (≈ 10.1 µM) | O=[N+]([O-])c1cc(-c2nc(-c3ccc(Oc4ccc(F)cc4)cc3)no2)cnc1O [Compound 77c] | –
54 | 2 µg/mL (≈ 5.46 µM) | 2 µg/mL (≈ 5.46 µM) | Oc1ccc(-c2nc(-c3ccc(Oc4ccc(F)cc4)cc3)no2)cc1F [Compound 70c] | –
55 | 2 µg/mL (≈ 4.01 µM) | 32 µg/mL (≈ 64.2 µM) | FC(F)(F)c1ccc(Oc2ccc(-c3noc(-c4n[nH]cc4I)n3)cc2)cc1 [Compound 62b] | –
56 | 16 µg/mL (≈ 42.9 µM) | > 128 µg/mL | FC(F)(F)c1ccc(Oc2ccc(-c3noc(-c4cnn[nH]4)n3)cc2)cc1 [Compound 117b] | antibacterial activity in words (SAR, ring A derivatives) [1]: No activity
57 | ≥ 32 µg/mL | 32 µg/mL (≈ 103 µM) | NCCCCc1nc(-c2ccc(Oc3ccccc3)cc2)no1 [Compound 137a] | –
58 | 1 µg/mL (≈ 2.61 µM) | 16 µg/mL (≈ 41.8 µM) | Brc1c[nH]nc1-c1nc(-c2ccc(Oc3ccccc3)cc2)no1 [61a] | –
59 | 256 µg/mL (≈ 583 µM) | – | CC(=O)Nc1ccc(-c2nc(-c3ccc(Oc4ccc(C(F)(F)F)cc4)cc3)no2)cc1 [Compound 83b] | –
